Assay results: US20120132797A1, “MEANS AND METHODS FOR DIAGNOSING THYROID DISORDERS” (BASF SE, priority 2009, published 2012)

Test system: Wistar (Crl:WI(Han)) rats
Assay: Mass spectrometry-based plasma metabolite profiling of rats treated with known inducers of thyroid function impairment
Format: in vivo, rat
Conditions: ratio of group medians vs controls
Text: At the beginning of the study the animals were 10-11 weeks old. Each dose group in the studies consisted of five rats per sex, and was compared with controls (10 rats per sex). […] The dose levels were chosen to show the typical overt (high dose) and slight (low dose) toxicological symptoms of the substances as described in the literature or in BASF internal study reports.
Blood samples were withdrawn from the retro-orbital sinus in all rats under isoflurane anesthesia on study days 7, 14 and 28 after a fasting period of 16-20 hours.
For mass spectrometry-based metabolite profiling analysis, plasma samples were extracted by a proprietary method which delivers a polar and a non-polar fraction. For GC-MS analysis, the non-polar fraction was treated with methanol under acidic conditions to yield the fatty acid methyl esters. Both fractions were further derivatised with Omethyl-hydroxyamine hydrochloride and pyridine to convert oxo groups to Omethyloximes and subsequently with a silylating agent before analysis.
In LC-MS/MS analysis, both fractions were reconstituted in appropriate solvent mixtures. HPLC was performed by gradient elution on reversed phase separation columns. For mass spectrometric detection metanomics proprietary technology was applied, which allows target and high sensitivity MRM (Multiple Reaction Monitoring) profiling in parallel to a full screen analysis. […] Moreover, several hundred additional analytes giving a fingerprint of the sample were included in the methods.
Following comprehensive analytical validation steps, the data for each analyte were normalized against data from pool samples. These samples were run in parallel through the whole process to account for process variability.
The sex- and day-stratified heteroscedastic t-test (“Welch test”) was applied to compare treated groups with respective controls. p-Values and ratios of corresponding group medians were collected as metabolic profiles and fed into a database.

[1] = female rats, fh7 (study day 7), Table 1
[2] = female rats, fh14 (study day 14), Table 1
[3] = female rats, fh28 (study day 28), Table 1
[4] = male rats, mh7 (study day 7), Table 2
[5] = male rats, mh14 (study day 14), Table 2
[6] = male rats, mh28 (study day 28), Table 2

## CCCc1cc(=O)[nH]c(=S)[nH]1 [6-Propyl-2-thiouracil]
[1]
  5-O-Methylsphingosine: 1.40
  Asparagine: 1.10
  Behenic acid (C22:0): 1.27
  Citrate: 0.87
  Docosahexaenoic acid (C22:cis[4,7,10,13,16]6): 1.25
  Glycine: 1.13
  Ketoleucine: 1.05
  Lysophosphatidylcholine (C18:2): 1.07
  Phosphatidylcholine (C16:1, C18:2): 1.49
  Phosphatidylcholine (C18:2, C20:4): 1.20
  Pyruvate: 0.91
  Tricosanoic acid (C23:0): 1.45
  erythro-Sphingosine: 1.46
  threo-Sphingosine: 1.24
Female rats, fh7 (study day 7), Table 1, first listing
  Sphingomyelin (d18:1, C16:0): 1.01
Female rats, fh7 (study day 7), Table 1, second listing
  Sphingomyelin (d18:1, C16:0): 1.26
[2]
  5-O-Methylsphingosine: 1.36
  Asparagine: 1.09
  Behenic acid (C22:0): 1.14
  Citrate: 0.69
  Docosahexaenoic acid (C22:cis[4,7,10,13,16]6): 1.14
  Glycine: 1.08
  Ketoleucine: 0.80
  Lysophosphatidylcholine (C18:2): 1.31
  Phosphatidylcholine (C16:1, C18:2): 1.37
  Phosphatidylcholine (C18:2, C20:4): 1.17
  Pyruvate: 0.65
  Tricosanoic acid (C23:0): 1.30
  erythro-Sphingosine: 1.28
  threo-Sphingosine: 1.29
Female rats, fh14 (study day 14), Table 1, first listing
  Sphingomyelin (d18:1, C16:0): 1.46
Female rats, fh14 (study day 14), Table 1, second listing
  Sphingomyelin (d18:1, C16:0): 1.33
[3]
  5-O-Methylsphingosine: 1.20
  Asparagine: 0.93
  Behenic acid (C22:0): 1.23
  Citrate: 0.66
  Docosahexaenoic acid (C22:cis[4,7,10,13,16]6): 0.84
  Glycine: 1.05
  Ketoleucine: 0.89
  Lysophosphatidylcholine (C18:2): 1.26
  Phosphatidylcholine (C16:1, C18:2): 1.09
  Phosphatidylcholine (C18:2, C20:4): 1.17
  Pyruvate: 0.73
  Tricosanoic acid (C23:0): 1.36
  erythro-Sphingosine: 1.24
  threo-Sphingosine: 1.34
Female rats, fh28 (study day 28), Table 1, first listing
  Sphingomyelin (d18:1, C16:0): 1.62
Female rats, fh28 (study day 28), Table 1, second listing
  Sphingomyelin (d18:1, C16:0): 1.29
[4]
  3-O-Methylsphingosine: 1.57
  5-O-Methylsphingosine: 1.50
  14-Methyl-Pentadecanoic acid: 0.98
  17-Methyloctadecanoic acid: 1.10
  Arginine: 1.09
  Cholesterol: 1.42
  Citrate: 0.90
  Dihom-gamma-Linolenic acid (C20:cis[8,11,14]3): 1.02
  Lignoceric acid (C24:0): 1.28
  Phytosphingosine: 1.11
  Sphingomyelin (d18:1, C16:0): 1.35
  Tricosanoic acid (C23:0): 1.28
  alpha-Tocopherol: 1.20
  erythro-Sphingosine: 1.46
  threo-Sphingosine: 1.33
Male rats, mh7 (study day 7), Table 2, first listing
  Glutamate: 0.78
Male rats, mh7 (study day 7), Table 2, second listing
  Glutamate: 1.03
[5]
  3-O-Methylsphingosine: 1.41
  5-O-Methylsphingosine: 1.38
  14-Methyl-Pentadecanoic acid: 0.86
  17-Methyloctadecanoic acid: 0.67
  Arginine: 1.10
  Cholesterol: 0.98
  Citrate: 0.73
  Dihom-gamma-Linolenic acid (C20:cis[8,11,14]3): 1.33
  Lignoceric acid (C24:0): 1.12
  Phytosphingosine: 1.07
  Sphingomyelin (d18:1, C16:0): 1.35
  Tricosanoic acid (C23:0): 1.10
  alpha-Tocopherol: 1.15
  erythro-Sphingosine: 1.30
  threo-Sphingosine: 1.23
Male rats, mh14 (study day 14), Table 2, first listing
  Glutamate: 0.78
Male rats, mh14 (study day 14), Table 2, second listing
  Glutamate: 0.70
[6]
  3-O-Methylsphingosine: 1.90
  5-O-Methylsphingosine: 1.82
  14-Methyl-Pentadecanoic acid: 0.64
  17-Methyloctadecanoic acid: 0.70
  Arginine: 1.35
  Cholesterol: 1.23
  Citrate: 0.64
  Dihom-gamma-Linolenic acid (C20:cis[8,11,14]3): 1.50
  Lignoceric acid (C24:0): 1.16
  Phytosphingosine: 1.20
  Sphingomyelin (d18:1, C16:0): 1.71
  Tricosanoic acid (C23:0): 1.55
  alpha-Tocopherol: 1.12
  erythro-Sphingosine: 1.47
  threo-Sphingosine: 1.52
Male rats, mh28 (study day 28), Table 2, first listing
  Glutamate: 0.65
Male rats, mh28 (study day 28), Table 2, second listing
  Glutamate: 0.49
